In article PMC7795597 (2020) one finds binding and Kd data, which are given here for two molecules.

In assay [1] the test system is kit2-kit* (DNA, G4) CGGGCGGGCGCGAGGGAGGGGAGGCGAGGAGGGGCGTGGCCGGC
Briefly: CD titration. Conditions: K+ (150 mM in Methods, 100 mM in Figure S3 legend); 10 mM Tris, pH 7.5, 25 °C; 4 µM DNA.

In assay [2] the test system is kit*5AP (DNA, G4, 2-aminopurine at 5 (replaces A)) GGCGAGGAGGGGCGTGGCCGGC
Kind of assay: 2-aminopurine fluorescence titration. Conditions: 150 mM K+; 10 mM Tris, pH 7.5, 25 °C; apparent; 0.5 µM DNA, single-site fit.

Assay [3] relates to kit*8AP (DNA, G4, 2-aminopurine at 8 (replaces A)) GGCGAGGAGGGGCGTGGCCGGC
Kind of assay: 2-aminopurine fluorescence titration. Conditions: 150 mM K+; 10 mM Tris, pH 7.5, 25 °C; apparent; 0.5 µM DNA, single-site fit.

Assay [4] concerns kit* (DNA, G4) GGCGAGGAGGGGCGTGGCCGGC
Kind of assay: SPR steady state. Conditions: 150 mM K+; 10 mM Tris, pH 7.5, 25 °C; apparent; one-site plus non-specific fit; DMSO < 1%.

Assay [5] shares this test system. Briefly: CD titration. Conditions: K+ (150 mM in Methods, 100 mM in Figure S3 legend); 10 mM Tris, pH 7.5, 25 °C; 4 µM DNA.

Each structure is given as a SMILES string.

With `NCCCC[C@H](N)C(=O)NCCC(=O)Nc1cccc2c1C(=O)c1cccc(NC(=O)CCNC(=O)[C@@H](N)CCCCN)c1C2=O`, the binding result in assay [1] and in assay [5] was “yes” in each case. The Kd in assay [2] was 320 ± 20 nM; in assay [3], 310 ± 20 nM; in assay [4], 510 ± 90 nM.
As for `C(=NNC1=NCCN1)c1cccc2cc3cccc(C=NNC4=NCCN4)c3cc12`, the binding result in assay [1] and in assay [5] was “yes” each time. In addition, the Kd in assay [2] stood at 2240 ± 170 nM; in assay [3] it was 1780 ± 150 nM; in assay [4], 6710 ± 1260 nM.
